{"source": "patent US20140187784A1", "about": "“RADIOACTIVE QUINOLINONE DERIVATIVE AND PHARMACEUTICAL DRUG COMPRISING THE SAME” (Nihon Medi-Physics Co., Ltd., priority 2012, published 2014)", "assay": "Pharmacokinetic and distribution experiment (radioactivity in blood and excised organs after tail vein injection)", "format": "in vivo", "conditions": "ddy mice; for Adrenal gland/Blood ratio / Radioactivity Distribution, Blood / Radioactivity Distribution, Femur / Radioactivity Distribution, Heart / Radioactivity Distribution, Large intestine / Radioactivity Distribution, Lung / Radioactivity Distribution, Small intestine / Radioactivity Distribution, Spleen / Radioactivity Distribution, Stomach / Adrenal gland/Kidney ratio / Radioactivity Distribution, Adrenal gland / Radioactivity Distribution, Kidney / Radioactivity Distribution, Liver / Radioactivity Distribution, Pancreas / Adrenal gland/Liver ratio: tail vein injection; for Adrenal gland/Blood ratio / Radioactivity Distribution, Blood / Radioactivity Distribution, Femur / Radioactivity Distribution, Heart / Radioactivity Distribution, Large intestine / Radioactivity Distribution, Lung / Radioactivity Distribution, Small intestine / Radioactivity Distribution, Spleen / Radioactivity Distribution, Stomach: 14.8 kBq (4 μCi); for Adrenal gland/Kidney ratio / Radioactivity Distribution, Adrenal gland / Radioactivity Distribution, Kidney / Radioactivity Distribution, Liver / Radioactivity Distribution, Pancreas: 14.8 kBq", "method": "(§1) The HPLC fraction of [^125I]PAY15 obtained in Example 3 was concentrated and then diluted with saline. The resulting solution was used in administration. 100 μL of the solution (18.5 kBq (0.5 μCi)) was injected to the tail vein of each of five ddy mice (6 weeks old). Five minutes later, each mouse was decapitated, and blood was collected. Then, organs (adrenal gland, pancreas, heart, lung, stomach, small intestine, large intestine, liver, spleen, kidney, and thyroid gland) were excised. After measurement of their weights, the radioactivities of blood and each excised organ were measured. Also, the point in time when each mouse was decapitated was changed to 5, 15, 30, 60, and 120 minutes later to perform similar operation.\nThe HPLC fraction of [^125I]PAY21 obtained in Example 6 was concentrated and then diluted with saline. The resulting solution was used in administration to perform the same operation as in Evaluation 1.\nas §1, with “[^18F]PAY27 obtained” for “The HPLC fraction of [^125I]PAY15 obtained”, “Example 10” for “Example 3”, “was” for “was concentrated and then”, “solution (14.8” for “solution (18.5”, “kBq (4” for “kBq (0.5”, “and thigh bone)” for “and thyroid gland)”\nas §1, with “[^18F]PAY54 obtained” for “The HPLC fraction of [^125I]PAY15 obtained”, “Example 13” for “Example 3”, “was” for “was concentrated and then”, “solution (14.8” for “solution (18.5”, “kBq (4” for “kBq (0.5”, “and thigh bone)” for “and thyroid gland)”"}
{"smiles": "O=C1CCc2cc(-c3cncc(OCC[18F])c3)cc3c2N1CCC3", "note": "[[^18F]PAY27, 9-(5-(2-[^18F]fluoroethyloxy)pyridin-3-yl)-1,2,6,7-tetrahydro-5H-pyrido[3,2,1-ij]quinolin-3-one]", "values": [{"measurement": "radioactivity accumulation in the adrenal gland compared with blood and periadrenal tissues", "setting": "at 60 minutes after administration", "value": "high radioactivity accumulation"}, {"measurement": "Adrenal gland/Blood ratio", "setting": "5 min", "value": "1.11 ± 0.17"}, {"measurement": "Radioactivity Distribution, Blood", "setting": "5 min", "value": "4.0 ± 0.3", "unit": "% dose/g"}, {"measurement": "Radioactivity Distribution, Femur", "setting": "5 min", "value": "1.8 ± 0.1", "unit": "% dose/g"}, {"measurement": "Radioactivity Distribution, Heart", "setting": "5 min", "value": "3.9 ± 0.3", "unit": "% dose/g"}, {"measurement": "Radioactivity Distribution, Large intestine", "setting": "5 min", "value": "2.5 ± 0.2", "unit": "% dose/g"}, {"measurement": "Radioactivity Distribution, Lung", "setting": "5 min", "value": "3.7 ± 0.4", "unit": "% dose/g"}, {"measurement": "Radioactivity Distribution, Small intestine", "setting": "5 min", "value": "5.0 ± 0.4", "unit": "% dose/g"}, {"measurement": "Radioactivity Distribution, Spleen", "setting": "5 min", "value": "3.0 ± 0.2", "unit": "% dose/g"}, {"measurement": "Radioactivity Distribution, Stomach", "setting": "5 min", "value": "5.1 ± 0.4", "unit": "% dose/g"}, {"measurement": "Adrenal gland/Blood ratio", "setting": "15 min", "value": "0.83 ± 0.12"}, {"measurement": "Radioactivity Distribution, Blood", "setting": "15 min", "value": "4.1 ± 0.2", "unit": "% dose/g"}, {"measurement": "Radioactivity Distribution, Femur", "setting": "15 min", "value": "2.3 ± 0.1", "unit": "% dose/g"}, {"measurement": "Radioactivity Distribution, Heart", "setting": "15 min", "value": "3.6 ± 0.2", "unit": "% dose/g"}, {"measurement": "Radioactivity Distribution, Large intestine", "setting": "15 min", "value": "5.0 ± 0.4", "unit": "% dose/g"}, {"measurement": "Radioactivity Distribution, Lung", "setting": "15 min", "value": "3.6 ± 0.1", "unit": "% dose/g"}, {"measurement": "Radioactivity Distribution, Small intestine", "setting": "15 min", "value": "6.7 ± 0.6", "unit": "% dose/g"}, {"measurement": "Radioactivity Distribution, Spleen", "setting": "15 min", "value": "2.8 ± 0.2", "unit": "% dose/g"}, {"measurement": "Radioactivity Distribution, Stomach", "setting": "15 min", "value": "5.6 ± 1.1", "unit": "% dose/g"}, {"measurement": "Adrenal gland/Blood ratio", "setting": "30 min", "value": "0.88 ± 0.18"}, {"measurement": "Radioactivity Distribution, Blood", "setting": "30 min", "value": "3.6 ± 0.3", "unit": "% dose/g"}, {"measurement": "Radioactivity Distribution, Femur", "setting": "30 min", "value": "2.4 ± 0.2", "unit": "% dose/g"}, {"measurement": "Radioactivity Distribution, Heart", "setting": "30 min", "value": "3.2 ± 0.4", "unit": "% dose/g"}, {"measurement": "Radioactivity Distribution, Large intestine", "setting": "30 min", "value": "6.1 ± 0.4", "unit": "% dose/g"}, {"measurement": "Radioactivity Distribution, Lung", "setting": "30 min", "value": "2.7 ± 0.2", "unit": "% dose/g"}, {"measurement": "Radioactivity Distribution, Small intestine", "setting": "30 min", "value": "5.9 ± 0.5", "unit": "% dose/g"}, {"measurement": "Radioactivity Distribution, Spleen", "setting": "30 min", "value": "2.3 ± 0.1", "unit": "% dose/g"}, {"measurement": "Radioactivity Distribution, Stomach", "setting": "30 min", "value": "5.5 ± 0.4", "unit": "% dose/g"}, {"measurement": "Adrenal gland/Blood ratio", "setting": "60 min", "value": "1.43 ± 0.47"}, {"measurement": "Radioactivity Distribution, Blood", "setting": "60 min", "value": "3.3 ± 0.1", "unit": "% dose/g"}, {"measurement": "Radioactivity Distribution, Femur", "setting": "60 min", "value": "3.9 ± 0.2", "unit": "% dose/g"}, {"measurement": "Radioactivity Distribution, Heart", "setting": "60 min", "value": "3.0 ± 0.2", "unit": "% dose/g"}, {"measurement": "Radioactivity Distribution, Large intestine", "setting": "60 min", "value": "7.0 ± 0.6", "unit": "% dose/g"}, {"measurement": "Radioactivity Distribution, Lung", "setting": "60 min", "value": "2.6 ± 0.2", "unit": "% dose/g"}, {"measurement": "Radioactivity Distribution, Small intestine", "setting": "60 min", "value": "6.0 ± 0.7", "unit": "% dose/g"}, {"measurement": "Radioactivity Distribution, Spleen", "setting": "60 min", "value": "2.2 ± 0.2", "unit": "% dose/g"}, {"measurement": "Radioactivity Distribution, Stomach", "setting": "60 min", "value": "4.1 ± 0.9", "unit": "% dose/g"}, {"measurement": "Adrenal gland/Blood ratio", "setting": "120 min", "value": "0.58 ± 0.44"}, {"measurement": "Radioactivity Distribution, Blood", "setting": "120 min", "value": "2.8 ± 0.5", "unit": "% dose/g"}, {"measurement": "Radioactivity Distribution, Femur", "setting": "120 min", "value": "6.4 ± 0.4", "unit": "% dose/g"}, {"measurement": "Radioactivity Distribution, Heart", "setting": "120 min", "value": "2.4 ± 0.3", "unit": "% dose/g"}, {"measurement": "Radioactivity Distribution, Large intestine", "setting": "120 min", "value": "9.1 ± 1.4", "unit": "% dose/g"}, {"measurement": "Radioactivity Distribution, Lung", "setting": "120 min", "value": "2.1 ± 0.1", "unit": "% dose/g"}, {"measurement": "Radioactivity Distribution, Small intestine", "setting": "120 min", "value": "3.1 ± 0.6", "unit": "% dose/g"}, {"measurement": "Radioactivity Distribution, Spleen", "setting": "120 min", "value": "1.8 ± 0.2", "unit": "% dose/g"}, {"measurement": "Radioactivity Distribution, Stomach", "setting": "120 min", "value": "3.9 ± 0.6", "unit": "% dose/g"}, {"measurement": "Adrenal gland/Kidney ratio", "setting": "5 min", "value": "1.00 ± 0.19"}, {"measurement": "Radioactivity Distribution, Adrenal gland", "setting": "5 min", "value": "4.5 ± 0.8", "unit": "% dose/g"}, {"measurement": "Radioactivity Distribution, Kidney", "setting": "5 min", "value": "4.5 ± 0.3", "unit": "% dose/g"}, {"measurement": "Radioactivity Distribution, Liver", "setting": "5 min", "value": "6.5 ± 1.0", "unit": "% dose/g"}, {"measurement": "Radioactivity Distribution, Pancreas", "setting": "5 min", "value": "3.0 ± 0.4", "unit": "% dose/g"}, {"measurement": "Adrenal gland/Kidney ratio", "setting": "15 min", "value": "0.99 ± 0.23"}, {"measurement": "Radioactivity Distribution, Adrenal gland", "setting": "15 min", "value": "3.4 ± 0.5", "unit": "% dose/g"}, {"measurement": "Radioactivity Distribution, Kidney", "setting": "15 min", "value": "3.5 ± 0.3", "unit": "% dose/g"}, {"measurement": "Radioactivity Distribution, Liver", "setting": "15 min", "value": "5.1 ± 0.3", "unit": "% dose/g"}, {"measurement": "Radioactivity Distribution, Pancreas", "setting": "15 min", "value": "2.5 ± 0.2", "unit": "% dose/g"}, {"measurement": "Adrenal gland/Kidney ratio", "setting": "30 min", "value": "1.40 ± 0.28"}, {"measurement": "Radioactivity Distribution, Adrenal gland", "setting": "30 min", "value": "3.2 ± 0.6", "unit": "% dose/g"}, {"measurement": "Radioactivity Distribution, Kidney", "setting": "30 min", "value": "2.3 ± 0.2", "unit": "% dose/g"}, {"measurement": "Radioactivity Distribution, Liver", "setting": "30 min", "value": "4.1 ± 0.5", "unit": "% dose/g"}, {"measurement": "Radioactivity Distribution, Pancreas", "setting": "30 min", "value": "2.0 ± 0.1", "unit": "% dose/g"}, {"measurement": "Adrenal gland/Kidney ratio", "setting": "60 min", "value": "1.88 ± 0.55"}, {"measurement": "Radioactivity Distribution, Adrenal gland", "setting": "60 min", "value": "4.7 ± 1.7", "unit": "% dose/g"}, {"measurement": "Radioactivity Distribution, Kidney", "setting": "60 min", "value": "2.5 ± 0.4", "unit": "% dose/g"}, {"measurement": "Radioactivity Distribution, Liver", "setting": "60 min", "value": "3.7 ± 0.3", "unit": "% dose/g"}, {"measurement": "Radioactivity Distribution, Pancreas", "setting": "60 min", "value": "2.0 ± 0.1", "unit": "% dose/g"}, {"measurement": "Adrenal gland/Kidney ratio", "setting": "120 min", "value": "0.99 ± 0.77"}, {"measurement": "Radioactivity Distribution, Adrenal gland", "setting": "120 min", "value": "2.2 ± 1.2", "unit": "% dose/g"}, {"measurement": "Radioactivity Distribution, Kidney", "setting": "120 min", "value": "1.7 ± 0.1", "unit": "% dose/g"}, {"measurement": "Radioactivity Distribution, Liver", "setting": "120 min", "value": "2.9 ± 0.5", "unit": "% dose/g"}, {"measurement": "Radioactivity Distribution, Pancreas", "setting": "120 min", "value": "1.5 ± 0.2", "unit": "% dose/g"}, {"measurement": "Adrenal gland/Liver ratio", "setting": "5 min", "value": "0.70 ± 0.16"}, {"measurement": "Adrenal gland/Liver ratio", "setting": "15 min", "value": "0.67 ± 0.06"}, {"measurement": "Adrenal gland/Liver ratio", "setting": "30 min", "value": "0.79 ± 0.20"}, {"measurement": "Adrenal gland/Liver ratio", "setting": "60 min", "value": "1.26 ± 0.37"}, {"measurement": "Adrenal gland/Liver ratio", "setting": "120 min", "value": "0.58 ± 0.46"}]}
